≈ marks a conversion by molar mass, not a printed value. Like-named read-outs stand apart in the source and are kept apart here. One block for each compound: values may come before it.
What was measured:
S. aureus 1199B = assay: MIC against S. aureus 1199B; assay type: cell-based, Staphylococcus aureus; conditions: Staphylococcus aureus, 1199B, read-out: MIC S. aureus 1199B, MHII media, 90% growth inhibition
K12 E. coli = assay: MIC against K12 E. coli; assay type: cell-based; conditions: Escherichia coli
[1] = no reference given, cited from earlier work
DH5α E. coli [2] = assay: MIC against DH5α E. coli; assay type: cell-based; conditions: Escherichia coli, no additional antimicrobial; MICs in table limited to […]; read-out: Minimum inhibitory concentration against DH5α E. coli
DH5α E. coli [3] = test system: DH5α E. coli; set-up: method as in PMID 15858645; conditions: free bases, previously reported data; cited from earlier work

Compound: CCn1cc(C(=O)O)c(=O)c2cc(F)c(N3CCNCC3)cc21 [Norfloxacin, reference compound]
MIC (S. aureus 1199B): 64 µM (≈ 20.4 µg/mL)
MIC (K12 E. coli; MHII media, 90% growth inhibition, read-out: MIC K12 E. coli): 0.125 µM (≈ 0.0399 µg/mL)

Compound: CC1(C)S[C@@H]2[C@H](NC(=O)Cc3ccccc3)C(=O)N2[C@H]1C(=O)O [Penicillin G, penicillin G]
pKa of the carboxyl groups ([1]; general value): 2.6–2.8

Compound: CCCCN1CCOCCOCCN(CCCC)CCOCCOCC1 [di-n-butyl-diaza-18-crown-6]
pK1 of macro ring nitrogen atoms [1]: 9.40
pK2 of macro ring nitrogen atoms [1]: 7.97

MIC (DH5α E. coli [2]): > 128 µM
Compound: CCCCCCCC[N+]1(C)CCOCCOCC[N+](C)(CCCCCCCC)CCOCCOCC1 (stereo not shown) [n-octyl LE•MeI]

Compound: CCCCCCCCCCCCCCN1CCOCCOCCN(CCCCCCCCCCCCCC)CCOCCOCC1 [n-tetradecyl LE]
Minimum inhibitory concentration against DH5α E. coli (DH5α E. coli [3]): >128 µM
MIC (K12 E. coli; read-out: MIC K12 E. coli, MHII media, 90% growth inhibition): ≥ 128 µM

MIC (DH5α E. coli [2]): > 128 µM
Compound: CCCCCCCCCCCCCC[N+]1(C)CCOCCOCC[N+](C)(CCCCCCCCCCCCCC)CCOCCOCC1 (stereo not shown) [n-tetradecyl LE•MeI]

Compound: CCCCCCCCCCCN1CCOCCOCCN(CCCCCCCCCCC)CCOCCOCC1 [n-undecyl LE, N,N′-Di-n-undecyl-4,13-diaza-18-crown-6]
Minimum inhibitory concentration against DH5α E. coli (DH5α E. coli [3]): 20 µM (≈ 11.4 µg/mL)

From paper PMC10603992, “Antimicrobial and Adjuvant Potencies of Di-n-alkyl Substituted Diazalariat Ethers” (Antibiotics, 2023)
